Assays:
[1] = test system: Staphylococcus aureus (BCRC 10780); assay: Inhibition zone (disk diffusion) assay; format: cell-based; settings: then disk diffusion 16 h at 37°C
Method: (§1) All assays were performed in triplicate.
(§2) The antimicrobial activity of rEP from flask cultures was evaluated by determining its ability to prevent growth of Gram-positive and Gram-negative bacteria with a disk diffusion assay. […] The most susceptible pathogens were R. anatipestifer (CFC27) and R. anatipestifer (CFC437) (Table 3a). Next, we investigated the thermostability of flask-fermented rEP with regard to its toxicity toward S. aureus (BCRC 10780), E. coli (BCRC 10675) and P. aeruginosa (ATCC 19660). Empty vector with no insert in P. pastoris was used as a control. Thermostability was measured by disk diffusion assay after cultures were incubated for 5 min at 40, 60, 80, or 100°C (Table 3b).

[2] = test system: Riemerella anatipestifer (CFC27); assay: Inhibition zone (disk diffusion) assay; format: cell-based; settings: disk paper 16 h at 37°C, shake-flask supernatant 120 h after induction
Method: as §1, §2

[3] = test system: Riemerella anatipestifer (RA3); assay: Inhibition zone (disk diffusion) assay; format: cell-based; settings: disk paper 16 h at 37°C, shake-flask supernatant 120 h after induction
Method: as §1, §2

duodenum villus = assay: Intestinal morphology, histological analysis; format: in vivo, Gallus gallus domesticus; settings: rEP animals compared to the control group, hematoxylin and eosin staining (S3 Fig)
Method: (§3) The growth promoting action of EP may be related to intestinal absorption and as such, small villus morphology was evaluated in a previous study. […] Moreover, growth enhancement has been observed in other reports. For example, feeding mice with PR39 peptide (4.7 kDa proline-rich AMP)-expressing Lactobacillus casei caused jejunum and duodenum villus height in the intestinal villi to increase. Use of recombinant porcine β-defensin 2 (rpBD2) as a feed additive for weaned piglets also produced increases in intestinal villus height of the duodenum and jejunum. Additionally, birds fed with AMP-A3 diet had increased villus height of the duodenum, jejunum and ileum. […] Fig). […] Supplementary file pone.0230021.s003.TIF: S3 Fig Effects of orally administered a rEP on posture, body weight, intestinal morphology, and gut flora. (a) After 28 days of feeding the 1.5% rEP-receiving chickens were larger than the spiraline A and basal diet controls. (b) The effects of feeding 1.5% rEP on body weight. (c) Representative picture of hematoxylin and eosin staining of intestinal villi and crypts. (d) The intestinal villus length and crypt depth were measured. (e) The effects of orally administrated the spiraline A, basal diet, and 1.5% rEP on intestinal microflora in G. g. domesticus. Relative proportions of bacterial families are shown. […]

intestinal microflora = assay: Intestinal microflora in duodenum; format: in vivo, Gallus gallus domesticus; settings: 1.5% rEP in diet, compared to spiraline A and basal diet groups (S3e Fig)
Method: as §3

Gallus gallus domesticus = assay: Dietary supplementation trial, growth performance and survival; format: in vivo; settings: ad libitum, 35 days (table title: 4 weeks), n = 27; for FE (feed efficiency) / PER (protein efficiency ratio) / Weight gain: mean ± SD
Excerpt: (§4) A total of 189 male or female 2-day-old G. g. domesticus were randomly assigned to seven dietary treatment groups, including rEP (0.75, 1.5, 3.0, 6.0 and 12%), spiraline-A (Juily Pharmaceutical Co., LTD. San Sia, Taipei Hsien, Taiwan), and basal diet groups. Each treatment group consisted of one cage with twenty-seven G. g. domesticus. The composition of the fodder is presented in S1b–S1d Table. The animals were allowed ad libitum access to fodder and water for the duration of the trial, beginning from 3 days of age. The total time of feeding was 35 days. The G. g. domesticus were maintained in a cage (animal container) with a constant environment (28.9–37.8°C, 12/12 h light-dark cycle). rEP fodder and fecal sewage were not directly discharged to the outside.
(§5) Body weight and survival rate were monitored daily during the experimental period. The weight gain, feed efficiency (FE), protein efficiency ratio (PER), and survival percentage were calculated. After 35 days of treatment, the G. g. domesticus were euthanized, blood samples were collected and serum was obtained by centrifugation (3000 ×g for 15 min at 4°C). Serum was kept at -80°C until analysis. Enzyme-linked immunosorbent assay (ELISA) was performed in accordance with the manufacturer’s standard procedures to determine the levels of immunological factors, including TNF-α, Interleukin-1β, Interleukin-6, Interleukin-10, Lysozyme, Immunoglobin-G (IgG), and Interferon-γ. Chicken serum samples were analyzed with ELISA kits from ABclonal Inc. (Woburn, MA, USA). After the reaction was completed, the optical density (OD) was measured at 450 nm on a microplate reader (SpectraMax® i3, Molecular Devices, Lagerhausstrasse, Wals, Austria).
Data were analyzed with Prism 7 software (GraphPad Inc., La Jolla, CA, USA). Values represent the mean ± standard deviation (SD). P < 0.05 was considered significant for one-way Analysis of variance (ANOVA) with Tukey’s multiple comparison test.

Interleukin-6 = assay: Serum ELISA after dietary supplementation; format: in vivo, Gallus gallus domesticus; settings: dietary supplementation 35 days, between groups
Excerpt: as §4, §5

Interferon-γ = assay: Serum ELISA after dietary supplementation; format: in vivo, Gallus gallus domesticus; settings: 1.5% in diet, 35 days, compared to antibiotic group (P = 0.0043) and control group (P = 0.0073)
Excerpt: as §4, §5

Interleukin-1β = assay: Serum ELISA after dietary supplementation; format: in vivo, Gallus gallus domesticus; settings: dietary supplementation 35 days, between groups
Excerpt: as §4, §5

Lysozyme = assay: Serum ELISA after dietary supplementation; format: in vivo, Gallus gallus domesticus; settings: dietary supplementation 35 days, between groups
Excerpt: as §4, §5

TNF-α = assay: Serum ELISA after dietary supplementation; format: in vivo, Gallus gallus domesticus; settings: dietary supplementation 35 days, between groups
Excerpt: as §4, §5

Interleukin-10 = assay: Serum ELISA after dietary supplementation; format: in vivo, Gallus gallus domesticus; settings: rEP-supplemented group, 35 days, compared to control group (P = 0.0341), not different than the antibiotic group
Excerpt: as §4, §5

[4] = diet with 0.75% rEP spray-dried powder
[5] = diet with 1.5% rEP spray-dried powder
[6] = diet with 3.0% rEP spray-dried powder
[7] = diet with 6.0% rEP spray-dried powder
[8] = diet with 12.0% rEP spray-dried powder

Sequence: EFFIFHIIKGLFHAGRMIHGLVNRRRHRHHHHHH [rEP, recombinant His-tagged Epinephelus lanceolatus piscidin from Pichia pastoris, used as crude culture supernatant or spray-dried powder]
- Inhibition zone diameter after heat treatment ([1]; thermostability: flask supernatant incubated 5 min at 40°C): 10.6±1.5 mm
- Inhibition zone diameter after heat treatment ([1]; thermostability: flask supernatant incubated 5 min at 60°C): 9.1±0.7 mm
- Inhibition zone diameter after heat treatment ([1]; thermostability: flask supernatant incubated 5 min at 80°C): 9.3±0.5 mm
- Inhibition zone diameter after heat treatment ([1]; thermostability: flask supernatant incubated 5 min at 100°C): 9.3±0.5 mm
- Inhibition zone diameter ([2]; first of two values printed): 12 mm
- Inhibition zone diameter ([2]; second of two values printed): 14 mm
- Inhibition zone diameter ([3]; first of two values printed): 10, 10 mm
- Inhibition zone diameter ([3]; second of two values printed): 10, 10 mm
- Duodenum villus height (duodenum villus): significantly greater
- Numbers of Enterobacteriaceae and Staphylococcaceae in duodenum (intestinal microflora): decreasing
- Numbers of Lactobacillaceae and Entercoccaceae in duodenum (intestinal microflora): significantly increased
- FE (feed efficiency) (Gallus gallus domesticus; [4]): 0.53±0.03
- PER (protein efficiency ratio) (Gallus gallus domesticus; [4]): 1.58±0.09
- Weight gain (Gallus gallus domesticus; [4]): 2531.80±142.13%
- Survival (Gallus gallus domesticus; [4]): 92.60%
- FE (feed efficiency) (Gallus gallus domesticus; [5]): 0.58±0.03
- PER (protein efficiency ratio) (Gallus gallus domesticus; [5]): 1.8±0.08
- Weight gain (Gallus gallus domesticus; [5]): 2727.42±116.08%
- Survival (Gallus gallus domesticus; [5]): 100%
- FE (feed efficiency) (Gallus gallus domesticus; [6]): 0.57±0.02
- PER (protein efficiency ratio) (Gallus gallus domesticus; [6]): 1.86±0.08
- Weight gain (Gallus gallus domesticus; [6]): 2809.71±119.30%
- Survival (Gallus gallus domesticus; [6]): 96.20%
- FE (feed efficiency) (Gallus gallus domesticus; [7]): 0.57±0.02
- PER (protein efficiency ratio) (Gallus gallus domesticus; [7]): 2.03±0.08
- Weight gain (Gallus gallus domesticus; [7]): 2738.11±109.04%
- Survival (Gallus gallus domesticus; [7]): 100%
- FE (feed efficiency) (Gallus gallus domesticus; [8]): 0.48±0.04
- PER (protein efficiency ratio) (Gallus gallus domesticus; [8]): 2.17±0.16
- Weight gain (Gallus gallus domesticus; [8]): 2181.26±158.95%
- Survival (Gallus gallus domesticus; [8]): 96.20%
- Serum IL-6 level (Interleukin-6): No significant changes
- Serum IFN-γ level (Interferon-γ): significantly increased
- Serum IL-1β level (Interleukin-1β): No significant changes
- Serum Lysozyme (Lyz) level (Lysozyme): No significant changes
- Serum TNF-α level (TNF-α): No significant changes
- Serum IL-10 level (Interleukin-10): significantly higher
